Assay results reported in patent US9233079B2, “Method for producing nanocapsules in the absence of an organic solvent, and nanocapsules produced thereby” (UNIVERSITE CLAUDE BERNARD LYON I, priority 2008, dated 2016).

Test: Saturation concentration of chlorhexidine base in water
Type: physicochemical
Description: The size and the zeta potential of the nanocapsules, determined using a Zetamaster® S, are 450 nm and −40 mV, respectively. The concentration of free (i.e. nonencapsulated) chiorhexidine in the nanocapsule suspension was determined after filtration of the colloidal suspension through a 0.22 μm filter. After dilution in distilled water, the concentration of chiorhexidine base free in the filtrate, determined by high performance liquid chromatography (HPLC) (H. Lboutounne, V. Faivre, F. Faison, and F. Pirot, Skin Pharmacology and Applied Skin Physiology 17: 176-182 (2004); H. Lboutounne, J.-F. Chaulet, C. Ploton, F. Faison, and F. Pirot Journal of Controlled Release 82: 319-334 (2002); D. T. T. Nhung, A.-M. Freydiere, H. Constant, F. Faison, and F. Pirot International Journal of Pharmaceutics 334:166-172 (2007)), was in the region of 0.008%, i.e. the saturation concentration of chiorhexidine base in water. The concentration of encapsulated chlorhexidine base was determined by virtue of the difference between the total concentration of chlorhexidine base in the suspension and the concentration of free chlorhexidine. The total concentration of encapsulated chiorhexidine base was determined after dilution of an aliquot of colloidal suspension in a mixture of acetonitrile/sodium acetate (30 mM) (50/50, v/v). […]

Which “saturation concentration of chlorhexidine base in water” value does the source give for `N=C(NCCCCCCNC(=N)NC(=N)Nc1ccc(Cl)cc1)NC(=N)Nc1ccc(Cl)cc1` [chlorhexidine base, Chlorhexidine base] here?
Its value is about 0.008%.
